In ChEMBL document CHEMBL1926526, “Mefloquine-oxazolidine derivatives, derived from mefloquine and arenecarbaldehydes: In vitro activity including against the multidrug-resistant tuberculosis strain T113” (Bioorg Med Chem, 2012) one finds viability, MIC and Ratio data, which are given here for eleven compounds.

Series [1] in a line: Cytotoxicity against mouse macrophages assessed as cell viability at 100 uM after 18 hrs by MTT assay. Particulars: read-out: Activity. It is filed as cell-based, Macrophage. For orientation: Formazan colour is commonly taken as a measure of viable cells.
A short description of series [2]: Cytotoxicity against mouse macrophages assessed as cell viability at 10 uM after 18 hrs by MTT assay. It is filed as cell-based, Macrophage. The settings on record: read-out: Activity.
Series [3] concerns Mycobacterium tuberculosis. The series can be described thus: Antimycobacterial activity against Mycobacterium tuberculosis H37Rv ATCC 27294 by alamar blue assay. The series is classed as functional. (Resazurin is reduced to fluorescent resorufin, in cell work by metabolically active cells.)
Series [4] is described as follows: Cytotoxicity against mouse macrophages assessed as cell viability at 1 uM after 18 hrs by MTT assay. The series is classed as cell-based, Macrophage. Particulars: read-out: Activity.
In series [5] the test system is Mycobacterium tuberculosis. The series can be described thus: Ratio of mefloquine MIC to compound MIC for Mycobacterium tuberculosis H37Rv ATCC 27294 by alamar blue assay. The series is classed as functional.

Broadly, the MIC is the smallest concentration in the dilution series that meets the test's criterion for growth inhibition. For `FC(F)(F)c1cc([C@@H]2OC(c3cccc(Cl)c3Cl)N3CCCC[C@H]23)c2cccc(C(F)(F)F)c2n1` (mixture of isomers), the viability at 18 h, 100 µM in series [1] is 100%. Further, the viability at 18 h, 10 µM in series [2] amounted to 100%. For the same compound, the MIC in series [3] is more than 250 µM. Further, the viability at 18 h, 1 µM in series [4] came out at 100%.
Take `COc1cccc(C2O[C@@H](c3cc(C(F)(F)F)nc4c(C(F)(F)F)cccc34)[C@H]3CCCCN23)c1OC` (mixture of isomers): the viability at 18 h, 100 µM in series [1] came out at 100%. Further, the viability at 18 h, 10 µM in series [2] worked out at 100%. The same compound had an MIC in series [3] of 11.9 µM. The Ratio in series [5] worked out at 2.8. Moreover, the viability at 18 h, 1 µM in series [4] is 100%.
With `O=[N+]([O-])c1ccc(C2O[C@@H](c3cc(C(F)(F)F)nc4c(C(F)(F)F)cccc34)[C@H]3CCCCN23)s1` (mixture of isomers), the viability at 18 h, 100 µM in series [1] stood at 100%. Moreover, the viability at 18 h, 10 µM in series [2] came to 100%. 12.1 µM was the least that counted as inhibitory in series [3] (MIC). In series [5], the Ratio turned out to be 2.7. In series [4], the viability at 18 h, 1 µM worked out at 100%.
Consider `FC(F)(F)c1cc([C@@H]2OC(c3ccc(Cl)c(Cl)c3)N3CCCC[C@H]23)c2cccc(C(F)(F)F)c2n1` (mixture of isomers), for which the viability at 18 h, 100 µM in series [1] turned out to be 100%. Also, the viability at 18 h, 10 µM in series [2] was determined as 100%. The compound also showed a minimal inhibitory concentration (MIC) in series [3] of more than 250 µM. In addition, the viability at 18 h, 1 µM in series [4] is 100%.
`FC(F)(F)c1cc([C@@H]2OC(c3c(Cl)cccc3Cl)N3CCCC[C@H]23)c2cccc(C(F)(F)F)c2n1` (mixture of isomers): the viability at 18 h, 100 µM in series [1] amounted to 59%. The viability at 18 h, 10 µM in series [2] turned out to be 92%. Also, the MIC in series [3] was more than 250 µM. Further, in series [4], the viability at 18 h, 1 µM was determined as 93%.
The matching figures for `FC(F)(F)c1cc([C@@H]2OC(c3ncc[nH]3)N3CCCC[C@H]23)c2cccc(C(F)(F)F)c2n1` (mixture of isomers): 100%, 100%, 27.4 µM and 100%.
Regarding `COc1cc(C2O[C@@H](c3cc(C(F)(F)F)nc4c(C(F)(F)F)cccc34)[C@H]3CCCCN23)cc(OC)c1OC` (mixture of isomers), the viability at 18 h, 100 µM in series [1] is 97%. In addition, in series [2], the viability at 18 h, 10 µM was determined as 100%. This compound displayed a minimal inhibitory concentration (MIC) in series [3] of 22.5 µM. Further, the viability at 18 h, 1 µM in series [4] came to 100%.
As to `OC(c1cc(C(F)(F)F)nc2c(C(F)(F)F)cccc12)C1CCCCN1` (stereo not given) [MEFLOQUINE], the viability at 18 h, 100 µM in series [1] is 70%. Further, the viability at 18 h, 10 µM in series [2] amounted to 81%. The viability at 18 h, 1 µM in series [4] is 95%.
Consider `FC(F)(F)c1cc([C@@H]2OC(c3ccc(Cl)cc3Cl)N3CCCC[C@H]23)c2cccc(C(F)(F)F)c2n1` (mixture of isomers), for which, in series [1], the viability at 18 h, 100 µM was 98%. Besides, in series [2], the viability at 18 h, 10 µM was found to be 100%. Moreover, the MIC in series [3] is more than 250 µM. Also, the viability at 18 h, 1 µM in series [4] was found to be 100%.
For the compound `O=[N+]([O-])c1ccc(C2O[C@@H](c3cc(C(F)(F)F)nc4c(C(F)(F)F)cccc34)[C@H]3CCCCN23)o1` (mixture of isomers), the viability at 18 h, 100 µM in series [1] stood at 100%. Also, in series [2], the viability at 18 h, 10 µM stood at 100%. Also, the MIC in series [3] turned out to be 99.8 µM. In addition, in series [4], the viability at 18 h, 1 µM turned out to be 100%.
`CCOc1cccc(C2O[C@@H](c3cc(C(F)(F)F)nc4c(C(F)(F)F)cccc34)[C@H]3CCCCN23)c1` (mixture of isomers): the viability at 18 h, 100 µM in series [1] turned out to be 95%. For the same compound, the viability at 18 h, 10 µM in series [2] turned out to be 100%. Further, the lowest concentration to inhibit growth in series [3] (MIC) was 24.5 µM. Also, the viability at 18 h, 1 µM in series [4] was found to be 100%.
